The supplement of paper PMC10307832

How the values were obtained:
Experiment in all cases: relative viability (nuclei count vs DMSO), 5 days (fraction); higher = more cells survive
[1] = compound: CC1(COc2ccc3c(c2)ncn3-c2ccc3cccc(N4CCC(N)CC4)c3n2)COC1 [Crenolanib] + CCNC(=O)c1noc(-c2cc(C(C)C)c(O)cc2O)c1-c1ccc(CN2CCOCC2)cc1 [Luminespib] (partner 0.01 µM)
In short: (§1)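 Dosing by pin tool came one day after lung cancer cell lines were seeded in 1536-well plates, using either one drug or a fixed anchor-drug dose plus five library-drug doses (not always all listed) in √10 steps. After 5 days, nuclei were counted on 4× images. Relative viability is treated-well nuclei count divided by vehicle-well nuclei count, and values are medians of duplicate plates.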

[2] = compound: CC1(COc2ccc3c(c2)ncn3-c2ccc3cccc(N4CCC(N)CC4)c3n2)COC1 [Crenolanib] + CS(=O)(=O)N1CCN(Cc2cc3nc(-c4cccc5[nH]ncc45)nc(N4CCOCC4)c3s2)CC1 [Pictilisib] (partner 1 µM)
In short: as §1

[3] = compound: O=C1NC(=O)[C@@H](c2cn3c4c(cccc24)CCC3)[C@@H]1c1c[nH]c2ccccc12 [Tivantinib] + COc1cccc2cc(-c3nc([C@H]4CC[C@H](C(=O)O)CC4)n4ncnc(N)c34)[nH]c12 [OSI-027] (partner 0.5 µM)
In short: as §1

[4] = compound: O=C1NC(=O)[C@@H](c2cn3c4c(cccc24)CCC3)[C@@H]1c1c[nH]c2ccccc12 [Tivantinib] + NC(=O)Nc1cc(-c2cccc(F)c2)sc1C(=O)N[C@H]1CCCNC1 [AZD7762] (partner 0.2 µM)
In short: as §1

| Cell Line | relative viability ([1]; first compound 0.01 µM) | relative viability ([1]; first compound 0.03162 µM) | relative viability ([1]; first compound 0.1 µM) | relative viability ([1]; first compound 0.3162 µM) | relative viability ([1]; first compound 1 µM) | relative viability ([2]; first compound 0.01 µM) | relative viability ([2]; first compound 0.03162 µM) | relative viability ([2]; first compound 0.1 µM) | relative viability ([2]; first compound 0.3162 µM) | relative viability ([2]; first compound 1 µM) | relative viability ([3]; first compound 0.01 µM) | relative viability ([3]; first compound 0.03162 µM) | relative viability ([3]; first compound 0.1 µM) | relative viability ([3]; first compound 0.3162 µM) | relative viability ([4]; first compound 0.01 µM) | relative viability ([4]; first compound 0.03162 µM) | relative viability ([4]; first compound 0.1 µM) | relative viability ([4]; first compound 0.3162 µM) |
| --- | --- | --- | --- | --- | --- | --- | --- | --- | --- | --- | --- | --- | --- | --- | --- | --- | --- | --- |
| LU99A | 0.253 | 0.217 | 0.219 | 0.287 | 0.207 | 0.37 | 0.324 | 0.325 | 0.393 | 0.287 | 0.295 | 0.295 | 0.296 | 0.249 | 0.318 | 0.356 | 0.307 | 0.278 |
| LXF-289 | 0.657 | 0.772 | 0.617 | 0.722 | 0.711 | 0.761 | 0.666 | 0.733 | 0.916 | 0.755 | 0.77 | 0.724 | 0.761 | 0.858 | 1.14 | 1.13 | 1.07 | 1.08 |
| NCI-H23 | 0.235 | 0.279 | 0.226 | 0.216 | 0.174 | 0.482 | 0.484 | 0.399 | 0.487 | 0.351 | 0.651 | 0.366 | 0.515 | 0.518 | 0.283 | 0.23 | 0.319 | 0.336 |
| NCI-H322M | 0.949 | 0.88 | 0.752 | 0.769 | 0.802 | 0.519 | 0.499 | 0.527 | 0.517 | 0.493 | 0.542 | 0.501 | 0.546 |  | 0.613 | 0.419 | 0.571 |  |
| NCI-H358 | 1.3 | 0.307 | 0.232 | 0.343 | 0.337 | 0.4 | 0.309 | 0.332 | 0.326 | 0.311 | 0.839 | 0.94 | 0.634 | 0.195 | 0.443 | 0.576 | 0.497 | 0.279 |
| NCI-H441 | 0.387 | 0.393 | 0.333 | 0.433 | 0.359 | 0.497 | 0.502 | 0.483 | 0.527 | 0.56 | 0.517 | 0.608 | 0.498 | 0.471 | 1.04 | 1.22 | 1.11 | 1.03 |
| NCI-H460 | 0.0489 | 0.039 | 0.0453 | 0.0313 | 0.0348 | 0.379 | 0.306 | 0.316 | 0.363 | 0.308 | 0.608 | 0.573 | 0.619 | 0.864 | 0.513 | 0.739 | 0.517 | 0.64 |
| NCI-H596 | 1.11 | 0.97 | 0.932 | 1.12 | 1.11 | 0.351 | 0.398 | 0.342 | 0.353 | 0.397 | 0.619 | 0.62 | 0.821 | 0.734 | 0.994 | 0.975 | 1.09 | 1.38 |
| NCI-H647 | 0.202 | 0.206 | 0.44 | 0.233 | 0.107 | 0.448 | 0.314 | 0.412 | 0.423 | 0.454 | 0.792 | 0.618 | 0.574 | 0.83 | 0.509 | 0.314 | 0.445 | 0.585 |
